The results in this text go back to patent US20040018582A1, “Genes and gene products that confer susceptibility to vancomycin derivative antibiotics and methods and assays for identifying bifunctional glycopeptide antibiotics using same” (priority 2001, published 2004).

Common to all, as to type: cell-based, Escherichia coli
The subject of one assay is mutant strain BE103. As to the kind of experiment: MIC, standard microdilution in LB medium. The following applies: 35° C., 22 hours. As to the method: (§1) The imp mutation alters the permeability of the outer membrane and confers sensitivity to vancomycin and its carbohydrate derivatives as well as to moenomycin. BE100 is an isolate of BAS849 (MC4100 ΔlamB106 imp 4213). B. A. Sampson et al., Genetics 122, 491(1989).
(§2) MICs were determined against strains grown in LB medium in a standard microdilution format.
In general terms: Broth dilution looks for growth in wells or tubes with falling amounts of substance.

Assay [1] has as its system wild-type strain BE100 (E. coli imp). Nature of the assay: MIC, standard microdilution in LB medium. The following applies: 35° C., 22 hours. On the procedure:
as §1, §2

The subject of assay [2] is mutant strain BE101. As to the kind of experiment: MIC, standard microdilution in LB medium. The following applies: 35° C., 22 hours. As to the method:
as §1, §2

In the next assay the test system is mutant strain BE102. Nature of the assay: MIC, standard microdilution in LB medium. The following applies: 35° C., 22 hours. As to the method: as §1, §2
In assay [3] the test system is mutant strains BE101, BE102, BE103 compared to wild-type BE100. As to the kind of experiment: Comparison of antibiotic effectiveness in mutant (yfgL) strains versus wild-type strain. Conditions: for resistance or sensitivity of the mutants: mutants vs parent strain BE100, by MIC. On the procedure:
The present inventions are directed to methods of identifying a compound having transglycosylase inhibitory activity. The method includes contacting the compound with cells having the wild type yfgL gene and then measuring the antibiotic effectiveness and contacting the compound with cells having the mutant yfgL gene and measuring the antibiotic effectiveness the compound.
as §2
Some antibiotics, for example the β-lactams, show a decrease in their bactericidal effectiveness against slow-growing cells. E. Tuomanen et al., J. Gen. Microbiol. 132, 1297 (1986). […] R. Kerns et al., J. Am. Chem. Soc. 122, 12608 (2000).
Examples of transpeptidase inhibitors include, but are not limited to, ampicillin, penicillin or cefoxitin (p-lactams). Compounds that inhibit cytoplasmic steps of peptidoglycan synthesis include, but are not limited to, fosfomycin and cycloserine.

The next assay concerns wild-type BE100. As to the kind of experiment: Time-kill curves at MIC. Conditions: wild-type BE100, vancomycin 0.8 μg/ml. As to the method:
(§3) FIGS. 1C and 1D represent time-kill curves of wild-type BE100 (C) and mutant strain BE101 (D) in the presence of antibiotics at their MICs. A standard microdilution assay was performed in LB. Samples were removed and serial dilutions were plated onto antibiotic-free agar after 15, 30, 60, 120 and 240 minutes of exposure to each antibiotic.

The test system of assay [4] is mutant strain BE101. Nature of the assay: Time-kill curves at MIC. Conditions: mutant BE101, vancomycin […]. On the procedure: as §3

Values after ≈ are worked out from the molar mass of the structure shown.

For the compound Moenomycin, the “minimum inhibitory concentration (MIC)” value in the assay on mutant strain BE103 was 3.2 µg/mL; in assay [1], 0.03 µg/mL; in the assay with mutant strain BE101 [2] it was 1.6 µg/mL; in the assay with mutant strain BE102, 0.8 µg/mL. Further, in assay [3] (all three resistant strains vs wild-type), the “times less active in resistant strains compared to the wild-type strain” value was 27-100 times.

In the case of `CN[C@H](CC(C)C)C(=O)N[C@H]1C(=O)N[C@@H](CC(N)=O)C(=O)N[C@H]2C(=O)N[C@H]3C(=O)N[C@H](C(=O)N[C@H](C(=O)O)c4cc(O)cc(O)c4-c4cc3ccc4O)[C@H](O)c3ccc(c(Cl)c3)Oc3cc2cc(c3O[C@@H]2O[C@H](CO)[C@@H](O)[C@H](O)[C@H]2O[C@H]2C[C@](C)(N)[C@H](O)[C@H](C)O2)Oc2ccc(cc2Cl)[C@H]1O` [Vancomycin], the “minimum inhibitory concentration (MIC)” value turned out to be 1.6 µg/mL (≈ 1.1 µM) with mutant strain BE103, 0.8 µg/mL (≈ 0.552 µM) in assay [1], 1.6 µg/mL (≈ 1.1 µM) in the assay on mutant strain BE101 [2] and 1.6 µg/mL (≈ 1.1 µM) in the assay on mutant strain BE102. Also, in assay [3], the “resistance or sensitivity of the mutants” value is on record as “did not show any resistance”. The “survival on exposure at MIC” value with wild-type BE100 and in the assay on mutant strain BE101 [4] was “prevented growth of all the strains but did not kill them” throughout.

For Teicoplanin, the “minimum inhibitory concentration (MIC)” value was determined as 4 µg/mL in the assay with mutant strain BE103, 0.25 µg/mL in assay [1], 16 µg/mL in the assay with mutant strain BE101 [2] and 3 µg/mL with mutant strain BE102. The “step of peptidoglycan synthesis blocked, found using wild type/mutant yfgL assay” value in assay [3] is reported as “block the transglycosylation step of peptidoglycan synthesis”. Also, in assay [3], the “resistance or sensitivity of the mutants” value was “resistant”.

As for gentamicin, in assay [3], the “resistance or sensitivity of the mutants” value is “sensitive”.

As to `CC[C@H]1OC(=O)[C@H](C)[C@@H](O[C@H]2C[C@@](C)(OC)[C@@H](O)[C@H](C)O2)[C@H](C)[C@@H](O[C@@H]2O[C@H](C)C[C@H](N(C)C)[C@H]2O)[C@](C)(O)C[C@@H](C)C(=O)[C@H](C)[C@@H](O)[C@]1(C)O` [erythromycin], the “resistance or sensitivity of the mutants” value in assay [3] is “sensitive”.

Regarding Desleucyl chlorobiphenyl vancomycin, the “minimum inhibitory concentration (MIC)” value with mutant strain BE103 is >125 µg/mL; in assay [1], 25 µg/mL; with mutant strain BE101 [2], >125 µg/mL; in the assay on mutant strain BE102 it was >125 µg/mL.

For `CC1(C)S[C@@H]2[C@H](NC(=O)Cc3ccccc3)C(=O)N2[C@H]1C(=O)O` [Penicillin G], the “minimum inhibitory concentration (MIC)” value with mutant strain BE103 is 3.2 µg/mL (≈ 9.57 µM); in assay [1] it was 3.2 µg/mL (≈ 9.57 µM); in the assay with mutant strain BE101 [2] it was 3.2 µg/mL (≈ 9.57 µM); with mutant strain BE102, 1.6 µg/mL (≈ 4.78 µM).
